# Laboratory results taken from ChEMBL document CHEMBL3856285, “Recent progress in the identification of adenosine monophosphate-activated protein kinase (AMPK) activators” (Bioorg Med Chem Lett, 2016).
# pEC50, pKd: −log10 of the molar value.
# Key:
# [1] = molecular target: AMPK alpha2/beta1/gamma1 (Homo sapiens) (UniProt P54646+P54619+Q9Y478); test: Activation of full length human recombinant AMPK alpha2/beta1/gamma1 expressed in baculovirus infected sf21 cells using 5'-FAM-SAMS peptide substrate after 45 mins by fluorescence assay relative to AMP
# Sequence of AMPK alpha2/beta1/gamma1 (Homo sapiens) (P54619 whole entry partner, one chain of several): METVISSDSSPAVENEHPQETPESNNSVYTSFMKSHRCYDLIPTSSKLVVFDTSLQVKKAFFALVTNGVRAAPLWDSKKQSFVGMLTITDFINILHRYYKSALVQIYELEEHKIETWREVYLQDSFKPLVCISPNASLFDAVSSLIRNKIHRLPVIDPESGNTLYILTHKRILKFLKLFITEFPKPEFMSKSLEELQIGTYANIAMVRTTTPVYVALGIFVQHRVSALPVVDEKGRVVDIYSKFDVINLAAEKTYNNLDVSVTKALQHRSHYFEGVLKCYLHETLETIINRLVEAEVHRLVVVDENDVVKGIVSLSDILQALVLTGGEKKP
# Sequence of AMPK alpha2/beta1/gamma1 (Homo sapiens) (P54646 whole entry, one chain of several): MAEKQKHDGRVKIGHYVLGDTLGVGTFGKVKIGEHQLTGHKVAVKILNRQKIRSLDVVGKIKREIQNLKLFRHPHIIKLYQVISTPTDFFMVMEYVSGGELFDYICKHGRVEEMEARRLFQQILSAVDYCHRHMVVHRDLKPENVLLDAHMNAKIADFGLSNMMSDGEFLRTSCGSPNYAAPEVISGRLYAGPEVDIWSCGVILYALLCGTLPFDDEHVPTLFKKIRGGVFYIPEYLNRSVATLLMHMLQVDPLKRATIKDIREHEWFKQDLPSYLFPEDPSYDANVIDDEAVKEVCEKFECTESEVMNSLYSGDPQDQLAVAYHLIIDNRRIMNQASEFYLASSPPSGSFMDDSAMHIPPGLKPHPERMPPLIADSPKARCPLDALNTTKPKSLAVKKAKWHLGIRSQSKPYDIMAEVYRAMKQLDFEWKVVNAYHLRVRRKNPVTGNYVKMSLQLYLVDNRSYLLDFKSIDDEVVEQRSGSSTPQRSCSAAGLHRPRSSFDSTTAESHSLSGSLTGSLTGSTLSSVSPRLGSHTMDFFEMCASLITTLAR
# [2] = molecular target: AMP-activated protein kinase, AMPK; test: Activation of recombinant AMPK (unknown origin) after 30 mins in presence of [gamma33P]ATP by scintillation proximity assay; design: species or system Homo sapiens
# [3] = molecular target: T1, AMPK alpha2/beta2/gamma1 (Homo sapiens) (UniProt P54646+O43741+P54619); test: Activation of full length human His6-tagged AMPK alpha2/beta2/gamma1 expressed in Escherichia coli BL21-CodonPlus (DE3)-RIPL using FL-Peptide 7 substrate incubated for 2 hrs by fluorescence assay relative to AMP
# T1 sequence (P54619 whole entry, looked up, one chain of several): as the sequence (P54619 whole entry partner, one chain of several) above
# T1 sequence (P54646 whole entry, looked up, one chain of several): as the sequence (P54646 whole entry, one chain of several) above
# [4] = molecular target: T1, AMPK alpha2/beta2/gamma1 (Homo sapiens); test: Activation of full length human His6-tagged AMPK alpha2/beta2/gamma1 expressed in Escherichia coli BL21-CodonPlus (DE3)-RIPL using FL-Peptide 7 substrate incubated for 2 hrs by fluorescence assay
# [5] = molecular target: T2, AMP-activated protein kinase (AMPK) alpha-1/beta-1/gamma-1 (Homo sapiens) (UniProt P54619+Q9Y478+Q13131); test: (§1) Activation of full length human phosphorylated His-tagged AMPK alpha1/beta1/gamma1 expressed in Escherichia coli BL21-CodonPlus (DE3)-RIPL using SAMS peptide substrate preincubated for 15 mins followed by PP2A addition for 90 mins followed by substrate addition measured after 60 mins in presence of [33P]ATP by scintillation counting method relative to AMP
# T2 sequence (P54619 whole entry, one chain of several): as the sequence (P54619 whole entry partner, one chain of several) above
# T2 sequence (Q13131 whole entry partner, one chain of several): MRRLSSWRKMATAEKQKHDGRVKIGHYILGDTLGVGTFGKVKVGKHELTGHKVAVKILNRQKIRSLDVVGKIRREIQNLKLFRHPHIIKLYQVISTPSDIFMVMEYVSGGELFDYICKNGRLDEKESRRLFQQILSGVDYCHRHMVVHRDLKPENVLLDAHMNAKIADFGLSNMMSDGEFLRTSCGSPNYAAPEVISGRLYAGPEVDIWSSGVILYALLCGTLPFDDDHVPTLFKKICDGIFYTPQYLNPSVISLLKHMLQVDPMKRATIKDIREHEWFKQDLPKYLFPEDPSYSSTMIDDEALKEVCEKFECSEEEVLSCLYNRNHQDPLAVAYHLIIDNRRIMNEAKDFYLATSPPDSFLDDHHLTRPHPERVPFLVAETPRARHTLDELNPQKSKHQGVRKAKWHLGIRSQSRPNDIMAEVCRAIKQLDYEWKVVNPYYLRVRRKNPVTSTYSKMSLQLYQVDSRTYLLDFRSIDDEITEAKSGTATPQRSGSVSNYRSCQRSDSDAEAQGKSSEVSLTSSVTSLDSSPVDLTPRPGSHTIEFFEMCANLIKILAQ
# [6] = molecular target: T3, AMP-activated protein kinase (AMPK) alpha-1/beta-1/gamma-1 (Homo sapiens, UniProt P54619+Q13131+Q9Y478); test: as §1, with “method” for “method relative to AMP”
# T3 sequence (P54619 whole entry, one chain of several): as the sequence (P54619 whole entry partner, one chain of several) above
# T3 sequence (Q13131 whole entry, one chain of several): as the sequence (Q13131 whole entry partner, one chain of several) above
# [7] = molecular target: T2, AMP-activated protein kinase (AMPK) alpha-1/beta-1/gamma-1 (Homo sapiens); test: (§2) Activation of human recombinant AMPK GST-tagged alpha1/Myc-tagged beta1/HA-tagged gamma1 expressed in African green monkey COS7 cells assessed as increase in SAMS peptide phosphorylation measured after 10 mins in presence of [gamma33P]ATP by scintillation counting method relative to control; assay type: cell-based; settings: COS-7
# [8] = molecular target: T3, AMP-activated protein kinase (AMPK) alpha-1/beta-1/gamma-1; test: as §2; assay type: cell-based, COS-7
# [9] = molecular target: T3, AMP-activated protein kinase (AMPK) alpha-1/beta-1/gamma-1; test: Activation of full length human His/GST-tagged AMPK alpha1/beta1/gamma1 expressed in baculovirus expression system after 1 hr by Z'Lyte assay
# [10] = molecular target: T4, 5'-AMP-activated protein kinase subunit beta-2 (Homo sapiens, UniProt O43741); test: Activation of human recombinant AMPK beta2 expressed in African green monkey COS7 cells or baculovirus infected insect cells assessed as increase in biotinylated […] (1 to 120 residues) peptide phosphorylation at Ser-79 residue measured after 60 mins by Alphascreen assay; design: species or system COS-7
# T4 sequence (O43741 whole entry): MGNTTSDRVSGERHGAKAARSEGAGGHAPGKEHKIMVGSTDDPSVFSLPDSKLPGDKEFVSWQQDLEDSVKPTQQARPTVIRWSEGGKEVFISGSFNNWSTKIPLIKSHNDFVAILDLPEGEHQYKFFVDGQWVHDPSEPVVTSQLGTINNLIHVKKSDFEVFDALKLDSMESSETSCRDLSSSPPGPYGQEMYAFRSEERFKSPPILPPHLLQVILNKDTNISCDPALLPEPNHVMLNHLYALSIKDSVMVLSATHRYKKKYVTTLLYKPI
# [11] = molecular target: T5, 5'-AMP-activated protein kinase subunit beta-1 (Homo sapiens, UniProt Q9Y478); test: Activation of human recombinant AMPK beta1 expressed in African green monkey COS7 cells or baculovirus infected insect cells assessed as increase in biotinylated […] (1 to 120 residues) peptide phosphorylation at Ser-79 residue measured after 60 mins by Alphascreen assay; design: species or system COS-7
# T5 sequence (Q9Y478 whole entry): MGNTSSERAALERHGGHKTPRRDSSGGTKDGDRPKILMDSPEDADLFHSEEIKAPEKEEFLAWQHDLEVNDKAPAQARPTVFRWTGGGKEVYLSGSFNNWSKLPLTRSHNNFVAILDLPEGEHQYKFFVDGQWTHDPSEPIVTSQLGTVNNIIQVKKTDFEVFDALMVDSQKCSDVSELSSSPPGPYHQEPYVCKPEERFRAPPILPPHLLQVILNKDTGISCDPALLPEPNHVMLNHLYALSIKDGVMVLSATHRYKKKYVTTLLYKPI
# [12] = molecular target: T2, AMP-activated protein kinase (AMPK) alpha-1/beta-1/gamma-1 (Homo sapiens); test: Activation of full length human recombinant AMPK alpha1/beta1/gamma1 expressed in baculovirus infected sf21 cells using 5'-FAM-SAMS peptide substrate after 45 mins by fluorescence assay relative to AMP
# [13] = molecular target: T3, AMP-activated protein kinase (AMPK) alpha-1/beta-1/gamma-1; test: Activation of full length human recombinant AMPK alpha1/beta1/gamma1 expressed in baculovirus infected sf21 cells using 5'-FAM-SAMS peptide substrate after 45 mins by fluorescence assay
# [14] = molecular target: T2, AMP-activated protein kinase (AMPK) alpha-1/beta-1/gamma-1 (Homo sapiens); test: Activation of full length human recombinant AMPK alpha1/beta1/gamma1 preincubated for 10 mins followed by FL-Peptide 7 addition measured after 2 hrs by fluorescence assay relative to AMP; assay type: protein-complex assay
# [15] = molecular target: T2, AMP-activated protein kinase (AMPK) alpha-1/beta-1/gamma-1 (Homo sapiens); test: Activation of full length human recombinant AMPK alpha1/beta1/gamma1 preincubated for 10 mins followed by FL-Peptide 7 addition measured after 2 hrs by fluorescence assay; assay type: protein-complex assay
# [16] = molecular target: T1, AMPK alpha2/beta2/gamma1 (Homo sapiens); test: Activation of full length human His6-tagged AMPK alpha2/beta2/gamma1 expressed in Escherichia coli BL21-CodonPlus (DE3)-RIPL preincubated for 10 mins followed by FL-Peptide 7 substrate addition measured after 2 hrs by fluorescence assay relative to AMP
# [17] = molecular target: T1, AMPK alpha2/beta2/gamma1 (Homo sapiens); test: Activation of full length human His6-tagged AMPK alpha2/beta2/gamma1 expressed in Escherichia coli BL21-CodonPlus (DE3)-RIPL preincubated for 10 mins followed by FL-Peptide 7 substrate addition measured after 2 hrs by fluorescence assay
# [18] = molecular target: T3, AMP-activated protein kinase (AMPK) alpha-1/beta-1/gamma-1; test: Binding affinity for full length human N-terminal His/BAP-tagged AMPK alpha1/beta1/gamma1 expressed in Escherichia coli BL21-CodonPlus by surface plasmon resonance method
# [19] = molecular target: T2, AMP-activated protein kinase (AMPK) alpha-1/beta-1/gamma-1 (Homo sapiens); test: Activation of full length human recombinant AMPK alpha1/beta1/gamma1 expressed in baculovirus infected sf21 cells using SAMS peptide substrate after 30 mins in presence of [33P]ATP by TopCount analysis relative to AMP
# [20] = molecular target: T6, AMP-activated protein kinase, AMPK (Homo sapiens) (UniProt P54646+O43741+P54619+Q9UGJ0+Q9Y478+Q13131+Q9UGI9); test: Activation of human recombinant AMPK assessed as increase in ADP accumulation using SAMS peptide after 30 mins by fluorescence assay
# Rattus norvegicus [21] = species on record: Rattus norvegicus; test: Activation of rat liver AMPK assessed as increase in biotinylated AMARAA peptide phosphorylation at 200 uM measured after 30 mins by DELFIA assay relative to control
# [22] = molecular target: T3, AMP-activated protein kinase (AMPK) alpha-1/beta-1/gamma-1; test: Activation of human recombinant AMPK alpha1/beta1/gamma1 expressed in Escherichia coli BL21-CodonPlus (DE3)-RIPL using SAMS peptide after 10 mins in presence of [gamma33P]ATP by scintillation counting
# Rattus norvegicus [23] = species on record: Rattus norvegicus
# Description: Allosteric activation of rat liver AMPK in presence of ATP relative to control
# [24] = molecular target: T7, 5'-AMP-activated protein kinase subunit beta-2 (Mus musculus) (UniProt Q6PAM0); test: Activation of AMPK beta2 in mouse C2C12 myotubes assessed as increase in phospho-ACC1 level at 1 uM after 2 hrs by ELISA relative to control
# T7 sequence (whole entry): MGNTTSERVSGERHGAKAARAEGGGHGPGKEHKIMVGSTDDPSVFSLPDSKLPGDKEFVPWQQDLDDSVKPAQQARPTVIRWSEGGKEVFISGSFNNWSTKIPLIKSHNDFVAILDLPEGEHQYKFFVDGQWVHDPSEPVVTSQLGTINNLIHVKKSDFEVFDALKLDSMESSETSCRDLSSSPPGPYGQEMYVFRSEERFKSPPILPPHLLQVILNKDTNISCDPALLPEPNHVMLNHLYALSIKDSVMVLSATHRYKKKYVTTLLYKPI
# [25] = molecular target: T8, 5'-AMP-activated protein kinase catalytic subunit alpha-2/beta-1/gamma-2 (Homo sapiens, UniProt P54646+Q9UGJ0+Q9Y478); test: Activation of recombinant human His-tagged AMPK alpha2 (2 to 552 residues)/beta1 (2 to 270 residues)/gamma2 (2 to 569 residues) expressed in baculovirus infected sf21 cells preincubated for 30 mins followed by biotinylated ACC-CREBp peptide substrate addition measured after 45 mins by HTRF assay relative to AMP
# Target sequence in this assay (P54646 whole entry, one chain of several, the tested form may be a part): as the sequence (P54646 whole entry, one chain of several) above
# Target sequence in this assay (Q9UGJ0 whole entry partner, one chain of several, the tested form may be a part): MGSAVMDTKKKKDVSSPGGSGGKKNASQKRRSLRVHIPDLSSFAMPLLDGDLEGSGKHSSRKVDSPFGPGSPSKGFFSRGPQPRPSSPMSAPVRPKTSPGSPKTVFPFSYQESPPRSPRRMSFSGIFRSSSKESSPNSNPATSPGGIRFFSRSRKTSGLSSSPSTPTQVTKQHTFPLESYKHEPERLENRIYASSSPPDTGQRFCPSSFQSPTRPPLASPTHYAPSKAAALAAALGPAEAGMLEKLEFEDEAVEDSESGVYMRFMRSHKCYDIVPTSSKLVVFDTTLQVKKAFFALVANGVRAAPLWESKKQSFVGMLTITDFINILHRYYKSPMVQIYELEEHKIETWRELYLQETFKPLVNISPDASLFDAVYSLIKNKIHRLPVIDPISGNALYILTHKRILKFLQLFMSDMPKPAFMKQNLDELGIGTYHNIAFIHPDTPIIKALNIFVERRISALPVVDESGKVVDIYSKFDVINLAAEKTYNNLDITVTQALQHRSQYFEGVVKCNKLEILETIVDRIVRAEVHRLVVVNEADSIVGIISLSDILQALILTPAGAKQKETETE
# [26] = molecular target: T9, 5'-AMP-activated protein kinase subunit beta-1 (Homo sapiens) (UniProt Q9Y478); test: Activation of AMPK beta1 in human HepG2 cells assessed as increase in phospho-ACC1 level at 1 uM after 2 hrs by ELISA relative to control; assay type: cell-based
# T9 sequence (whole entry): T5 sequence (Q9Y478 whole entry)
# [27] = molecular target: T8, 5'-AMP-activated protein kinase catalytic subunit alpha-2/beta-1/gamma-2; test: Activation of recombinant human His-tagged AMPK alpha2 (2 to 552 residues)/beta1 (2 to 270 residues)/gamma2 (2 to 569 residues) expressed in baculovirus infected sf21 cells preincubated for 30 mins followed by biotinylated ACC-CREBp peptide substrate addition measured after 45 mins by HTRF assay
# Target sequence in this assay (P54646 whole entry, one chain of several, the tested form may be a part): as the sequence (P54646 whole entry, one chain of several) above
# Target sequence in this assay (Q9UGJ0 whole entry, one chain of several, the tested form may be a part): as the sequence (Q9UGJ0 whole entry partner, one chain of several, the tested form may be a part) above
# [28] = Activation of rat liver AMPK assessed as increase in 33P-phosphorylation of SAMS peptide
# [29] = molecular target: T3, AMP-activated protein kinase (AMPK) alpha-1/beta-1/gamma-1; test: Activation of full length human recombinant AMPK alpha1/beta1/gamma1 expressed in baculovirus infected sf21 cells using SAMS peptide substrate after 30 mins in presence of [33P]ATP by TopCount analysis
# Mus musculus = test: Antidiabetic activity in […] ob/ob mouse model assessed as reduction in blood glucose level at 150 mg/kg, po bid for 8 days relative to control; assay type: functional; settings: 192 h
# [30] = molecular target: T6, AMP-activated protein kinase, AMPK (Homo sapiens); test: Activation of AMPK (unknown origin) assessed as residual activity at 30 uM using AMARAA peptide after 30 mins by DELFIA assay relative to control
# [31] = molecular target: AMPK alpha1/beta1/gamma2 (Homo sapiens) (UniProt Q9UGJ0+Q9Y478+Q13131); test: Activation of human recombinant AMPK alpha1/beta1/gamma2 expressed in Escherichia coli assessed as residual activity at 30 uM using AMARAA peptide relative to control
# Sequence of AMPK alpha1/beta1/gamma2 (Homo sapiens) (Q13131 whole entry partner, one chain of several): as the sequence (Q13131 whole entry partner, one chain of several) above
# Sequence of AMPK alpha1/beta1/gamma2 (Homo sapiens) (Q9UGJ0 whole entry, one chain of several): as the sequence (Q9UGJ0 whole entry partner, one chain of several, the tested form may be a part) above
compound,measurement,setting,value
N#Cc1ccc(-c2ccc(-c3nc4nc(O[C@@H]5CO[C@H]6[C@@H]5OC[C@H]6O)[nH]c4cc3Cl)cc2)c(F)c1,%max,[1],304%
O=C(O)c1ccc2c(c1)C1(CC1)CC(c1cc(Cl)ccc1F)N2 (stereo unspecified),pEC50,[2],5.91
O[C@@H]1CO[C@H]2[C@@H]1OC[C@H]2Oc1cc2nc(-c3c(F)cc(N4CCOCC4)cc3F)c(F)cc2[nH]1,Emax,[3],729%
same,EC150,[4],8.8 nM
O=C(O)c1n[nH]c2cc(Cl)c(-c3ccc(C4(O)CCC4)cc3)cc12,%max,[5],80%
same,pEC50,[6],8.08
C(=N\c1cnc2ccccc2c1)/c1ccc2ccccc2n1,fold change (FC),[7],2.7
same,pEC50,[8],5.74
Cc1cc(-c2c(O)c3cc(-c4ccc(N(C)C)cc4)c(Cl)cc3[nH]c2=O)on1,pEC50,[9],7.40
O=C(O)c1c[nH]c2ccc(-c3ccc(-c4c(O)cccc4O)cc3)cc12,pEC50,[10],> 5.30
same,pEC50,[11],> 6.30
CC(C)(O)c1ccc(-c2cc3nc(O[C@H]4CO[C@H](CO)[C@@H](O)C4)[nH]c3cc2Cl)cc1,%max,[12],379%
same,pEC50,[13],8.40
CC(C)(C(=O)O)[C@H]1CC[C@H](Oc2nc3nc(-c4ccc(C5(CO)CC5)cc4)c(Cl)cc3[nH]2)CC1,%max,[14],257%
same,EC150,[15],5.6 nM
same,%max,[16],237%
same,EC150,[17],5 nM
N#Cc1c(O)c2c(-c3ccc(-c4ccccc4O)cc3)c(Cl)sc2[nH]c1=O,pKd,[18],7.13
Cc1ccc(Oc2nc3nc(-c4ccc(N5CCCC5)cc4)c(Cl)cc3[nH]2)cc1C(=O)O,%max,[12],681%
same,pEC50,[13],9.00
Cc1ccc(Oc2nc3cc(-c4ccc5c(ccn5C)c4)c(Cl)cc3[nH]2)cc1C(=O)O,%max,[19],241%
Nc1nc(-c2ccc(-n3c(Cl)cc4[nH]c(=O)n(-c5cccc(C(=O)O)c5)c(=O)c43)cc2)cs1,pEC50,[9],6.20
CC1(C)Cc2cc(C(=O)O)ccc2NC1c1cccc(N2C(=O)OCC2(C)C)c1 (stereo unspecified),EC30,[20],1150 nM
COc1ccc(NC(=O)Nc2ccc(Cn3cnc(O)c3C(N)=O)cc2)cc1,Activity,Rattus norvegicus [21],229%
Cc1cc(-c2ccc(/C=C3\S/C(=N\c4ccc(Cl)c(C(=O)O)c4)NC3=O)o2)c([N+](=O)[O-])cc1C,pEC50,[22],6.52
Cc1ccc(Oc2nc3nc(-c4ccc(-c5ccccc5O)cc4)c(Cl)cc3[nH]2)cc1C(=O)O,%max,[14],355%
same,EC150,[15],0.42 nM
same,%max,[16],292%
same,EC150,[17],4.3 nM
O=C(O)c1ccccc1O,A0.5,Rattus norvegicus [23],1 mM
COc1cc(C(O)=C2C(=O)Nc3cc(Cl)c(-c4ccc5c(ccn5C)c4)cc32)on1,Activity,[24],114%
same,Emax,[25],256%
same,Activity,[26],132%
same,pEC50,[27],9.15
N#Cc1c(O)c2c(-c3ccc(-c4ccccc4O)cc3)csc2[nH]c1=O,pEC50,[28],6.10
CC1(C)CC(c2ccccc2NS(=O)(=O)c2cccc(F)c2)Nc2ccc(C(F)(F)F)cc21 (stereo unspecified),EC30,[20],1140 nM
Cc1ccc(Oc2nc3cc(-c4ccc(N5CCOCC5)cc4)c(Cl)cc3[nH]2)cc1P(=O)(O)O,%max,[19],224%
same,pEC50,[29],8.92
O=c1[nH]c2sc(Cl)c(-c3ccc4c(c3O)CCCC4)c2c(O)c1-c1ccccc1,inhibition in vivo at 150 mg/kg,Mus musculus,41%
same,Activity,[30],> 130%
Cc1ccc(-c2c(O)c3c(-c4ccc5ccccc5c4O)c(Cl)sc3[nH]c2=O)cc1,Activity,[31],> 90%
